Assay results as given in US4521413A, “Cephem compounds” (Fujisawa Pharmaceutical Co., Ltd., priority 1981, dated 1985).
Values after ≈ are worked out from the molar mass of the structure shown.

Legend:
B. subtilis ATCC 6633 = experiment: Minimal inhibitory concentration (MIC), agar streak test on heart infusion agar; type: cell-based; conditions: Bacillus subtilis, ATCC6633, 37° C. for 20 hours, 10^8 viable cells per ml
Protocol: (§1) One loopful of an overnight culture of each test strain in Trypticase-soy broth (10^8 viable cells per ml.) was streaked on heart infusion agar (HI-agar) containing graded concentrations of antibiotics, and the minimal inhibitory concentration (MIC) was expressed in terms of μg/ml after incubation at 37° C. for 20 hours.

S. marcescens 35 = experiment: as above; type: cell-based; conditions: Serratia marcescens, 37° C. for 20 hours, 10^8 viable cells per ml
Protocol: as §1

Row | MIC (B. subtilis ATCC 6633) | MIC (S. marcescens 35) | SMILES
1 | 0.39 µg/mL (≈ 0.732 µM) | 1.56 µg/mL (≈ 2.93 µM) | CCO/N=C(\C(=O)NC1C(=O)N2C(C(=O)[O-])=C(C[n+]3cccc(N(C)C)c3)CSC12)c1nsc(N)n1 (stereo not drawn) [Test Compound (2), 7-[2-Ethoxyimino-2-(5-amino-1,2,4-thiadiazol-3-yl)acetamido]-3-(3-dimethylamino-1-pyridiniomethyl)-3-cephem-4-carboxylate (syn isomer)]
2 | 0.78 µg/mL (≈ 1.5 µM) | 1.56 µg/mL (≈ 3.01 µM) | CCO/N=C(\C(=O)NC1C(=O)N2C(C(=O)[O-])=C(C[n+]3cccc(NC)c3)CSC12)c1nsc(N)n1 (stereo not drawn) [Test Compound (1), 7-[2-Ethoxyimino-2-(5-amino-1,2,4,-thiadiazol-3-yl)acetamido]-3-(3-methylamino-1-pyridiniomethyl)-3-cephem-4-carboxylate (syn isomer)]
3 | 0.78 µg/mL (≈ 1.5 µM) | 1.56 µg/mL (≈ 3 µM) | CCO/N=C(\C(=O)NC1C(=O)N2C(C(=O)[O-])=C(C[n+]3cccc(OC)c3)CSC12)c1nsc(N)n1 (stereo not drawn) [Test Compound (3), 7-[2-Ethoxyimino-2-(5-amino-1,2,4-thiadiazol-3-yl)acetamido]-3-(3-methoxy-1-pyridiniomethyl)-3-cephem-4-carboxylate (syn isomer)]
